Reference: PMC9697930 (International Journal of Molecular Sciences, 2022)

Columns and labels:
ABCB1 [1] = molecular target: T1, ABCB1 (Homo sapiens, UniProt P08183); assay: Accumulation assay with daunorubicin in MDCKII-ABCB1 cells; type: cell-based; design: expressed in transfected cells; host or cells: MDCKII (canine kidney) subline MDCKII-ABCB1, gift of Dr. Alfred Schinkel; conditions: read-out: ABCB1 inhibition IC50
Protocol: (§1) The conduction of accumulation assays followed the slightly changed protocol described previously. In the study, MDCKII-par, MDCKII-ABCB1, MDCKII-ABCC1, MDCKII-ABCG2, and primary explants were seeded into 12-well plates in variant densities, 22.0 × 10^4, 15.0 × 10^4, 25.0 × 10^4, 22.0 × 10^4, and 15.0 × 10^4 cells/well, respectively. After 24 h incubation, two washing steps with 1 × PBS were applied. […] The cells were then incubated under standard conditions for 30 min. Next steps included placing the plates on ice, washing the cells with ice-cold 1 × PBS two-times, and detaching the cells with the ice-cold 10 × trypsin without phenol red. Following trypsinization, cells were resuspended in 1 × PBS containing 2% FBS. Subsequently, cell suspensions were transferred into the test tubes and kept on ice. The fluorescence in cells was measured immediately after the collection of their suspensions using flow cytometer Sony SA3800 Spectral Cell Analyzer (Sony Biotechnology, San Jose, CA, USA). SA3800 software (Sony Biotechnology, San Jose, CA, USA) was used to evaluate the data.

ABCC1 [2] = molecular target: T2, ABCC1 (Homo sapiens, UniProt P33527); assay: Accumulation assay with daunorubicin in MDCKII-ABCC1 cells; type: cell-based; design: expressed in transfected cells; host or cells: MDCKII (canine kidney) subline MDCKII-ABCC1, gift of Dr. Alfred Schinkel; conditions: read-out: ABCC1 inhibition IC50
Protocol: as §1

A431-ABCG2 = assay: MTT proliferation / drug combination assay; type: cell-based; conditions: Homo sapiens; A431-ABCG2; comparative MTT, 48 h; read-out: antiproliferative IC50
Protocol: (§2) The viability MTT assay was employed in several experimental sets, including induction studies, comparative viability assays, and drug combinations. First, 1.3 × 10^4 (MDCKII sublines), 1.2 × 10^4 (A431 sublines), 1.5 × 10^4 (MCF-7), and 1.0 × 10^4 (primary NSCLC explants) cells were seeded in 96-well plates. After seeding, cells were left to refresh in incubator for 24 h. Secondly, the medium was removed, and the serial dilutions of the drugs or drug combinations were added to the cells. Next to these variants, a medium with 40% DMSO and vehicle-containing media were tested as nonviable and unaffected viability controls, respectively. After an additional 48 h of incubation, the cells were washed with 1 × PBS and then treated with 1 mg/mL MTT solution in Opti-MEM. Subsequently, cells were incubated for 60 min under standard conditions. After MTT treatment, generated formazan crystals were solubilized with DMSO for 10 min. Wavelengths of 570 nm (formazan) and 690 nm (background) were used for absorbance measurements using a microplate reader Infinite 200 Pro NanoQuant (Tecan, Männedorf, Switzerland).
(§3) In vitro cell lines (MDCKII and A431) and primary NSCLC explants were seeded (see densities above) in 96-well plates and incubated for 24 h. […] Combined cells were incubated with the tested compounds for 48 h, and subsequently, MTT assay was performed to assess cell viability as described above. Besides IC50-shift analysis, CompuSyn 3.0.1 software (ComboSyn Inc., Paramus, NJ, USA) was used for the additional analysis of obtained data. This software works with the algorithms of the combination index (CI) method of Chou–Talalay, which is frequently used for the accurate quantification of drug combinations’ outcomes. According to the CI method principle, the combination effects were separated into three categories, including synergistic (CI < 0.9), additive (CI between 0.9–1.1), or antagonistic (CI > 1.1) ones.

A431-parent = assay: MTT proliferation / drug combination assay; type: cell-based; conditions: Homo sapiens, A-431; A431 parental; comparative MTT, 48 h; read-out: antiproliferative IC50
Protocol: as §2, §3

A431-ABCC1 = assay: MTT proliferation / drug combination assay; type: cell-based; conditions: Homo sapiens, comparative MTT, 48 h, read-out: antiproliferative IC50
Protocol: as §2, §3

ABCB1 [3] = molecular target: T1, ABCB1; design: expressed in transfected cells; host or cells: MDCKII (canine kidney) subline MDCKII-ABCB1, gift of Dr. Alfred Schinkel; conditions: Abcb1-knockout mice, MDCKII-ABCB1 cells; cited from earlier work
ABCC1 [4] = molecular target: T2, ABCC1; conditions: 12-days exposure; MCF-10A; cited from earlier work

T2 sequence (P33527 whole entry): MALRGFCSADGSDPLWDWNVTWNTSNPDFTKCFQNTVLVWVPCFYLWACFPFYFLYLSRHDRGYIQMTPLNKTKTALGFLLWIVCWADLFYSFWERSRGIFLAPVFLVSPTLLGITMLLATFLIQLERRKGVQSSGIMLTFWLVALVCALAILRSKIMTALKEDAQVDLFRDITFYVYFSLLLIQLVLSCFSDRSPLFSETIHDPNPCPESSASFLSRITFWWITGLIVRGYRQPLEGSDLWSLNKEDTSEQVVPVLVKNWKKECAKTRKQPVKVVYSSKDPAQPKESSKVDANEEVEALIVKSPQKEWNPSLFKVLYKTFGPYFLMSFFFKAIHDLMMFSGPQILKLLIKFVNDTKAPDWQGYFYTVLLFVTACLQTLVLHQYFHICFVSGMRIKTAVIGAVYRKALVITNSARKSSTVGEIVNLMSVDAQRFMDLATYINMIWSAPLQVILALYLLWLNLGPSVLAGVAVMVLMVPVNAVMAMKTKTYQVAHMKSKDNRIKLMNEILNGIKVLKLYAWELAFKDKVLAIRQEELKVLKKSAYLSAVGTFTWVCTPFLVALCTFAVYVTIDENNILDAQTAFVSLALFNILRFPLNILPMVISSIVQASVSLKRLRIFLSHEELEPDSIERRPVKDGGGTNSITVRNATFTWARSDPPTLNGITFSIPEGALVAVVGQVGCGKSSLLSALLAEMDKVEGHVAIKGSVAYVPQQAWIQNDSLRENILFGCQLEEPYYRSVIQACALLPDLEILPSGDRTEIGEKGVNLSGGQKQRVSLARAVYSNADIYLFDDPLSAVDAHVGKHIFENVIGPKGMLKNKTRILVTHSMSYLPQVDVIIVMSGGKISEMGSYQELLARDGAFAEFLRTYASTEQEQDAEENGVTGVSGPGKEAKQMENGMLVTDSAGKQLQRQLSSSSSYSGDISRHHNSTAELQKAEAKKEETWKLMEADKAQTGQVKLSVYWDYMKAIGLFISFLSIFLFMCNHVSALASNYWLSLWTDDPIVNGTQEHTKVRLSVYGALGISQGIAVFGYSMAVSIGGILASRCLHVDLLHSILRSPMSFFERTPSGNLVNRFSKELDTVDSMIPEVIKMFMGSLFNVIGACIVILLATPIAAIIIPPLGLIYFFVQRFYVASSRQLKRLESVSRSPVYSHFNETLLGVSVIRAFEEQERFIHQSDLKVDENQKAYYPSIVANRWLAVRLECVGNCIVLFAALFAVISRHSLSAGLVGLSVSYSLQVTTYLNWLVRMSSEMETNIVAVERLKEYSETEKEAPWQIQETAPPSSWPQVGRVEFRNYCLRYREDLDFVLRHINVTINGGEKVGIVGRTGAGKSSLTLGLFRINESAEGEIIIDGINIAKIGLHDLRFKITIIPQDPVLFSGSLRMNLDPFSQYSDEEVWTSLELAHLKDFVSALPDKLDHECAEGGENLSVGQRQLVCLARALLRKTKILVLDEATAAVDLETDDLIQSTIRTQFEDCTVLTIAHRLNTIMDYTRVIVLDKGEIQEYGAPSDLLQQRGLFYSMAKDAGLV
T1 sequence (P08183 whole entry): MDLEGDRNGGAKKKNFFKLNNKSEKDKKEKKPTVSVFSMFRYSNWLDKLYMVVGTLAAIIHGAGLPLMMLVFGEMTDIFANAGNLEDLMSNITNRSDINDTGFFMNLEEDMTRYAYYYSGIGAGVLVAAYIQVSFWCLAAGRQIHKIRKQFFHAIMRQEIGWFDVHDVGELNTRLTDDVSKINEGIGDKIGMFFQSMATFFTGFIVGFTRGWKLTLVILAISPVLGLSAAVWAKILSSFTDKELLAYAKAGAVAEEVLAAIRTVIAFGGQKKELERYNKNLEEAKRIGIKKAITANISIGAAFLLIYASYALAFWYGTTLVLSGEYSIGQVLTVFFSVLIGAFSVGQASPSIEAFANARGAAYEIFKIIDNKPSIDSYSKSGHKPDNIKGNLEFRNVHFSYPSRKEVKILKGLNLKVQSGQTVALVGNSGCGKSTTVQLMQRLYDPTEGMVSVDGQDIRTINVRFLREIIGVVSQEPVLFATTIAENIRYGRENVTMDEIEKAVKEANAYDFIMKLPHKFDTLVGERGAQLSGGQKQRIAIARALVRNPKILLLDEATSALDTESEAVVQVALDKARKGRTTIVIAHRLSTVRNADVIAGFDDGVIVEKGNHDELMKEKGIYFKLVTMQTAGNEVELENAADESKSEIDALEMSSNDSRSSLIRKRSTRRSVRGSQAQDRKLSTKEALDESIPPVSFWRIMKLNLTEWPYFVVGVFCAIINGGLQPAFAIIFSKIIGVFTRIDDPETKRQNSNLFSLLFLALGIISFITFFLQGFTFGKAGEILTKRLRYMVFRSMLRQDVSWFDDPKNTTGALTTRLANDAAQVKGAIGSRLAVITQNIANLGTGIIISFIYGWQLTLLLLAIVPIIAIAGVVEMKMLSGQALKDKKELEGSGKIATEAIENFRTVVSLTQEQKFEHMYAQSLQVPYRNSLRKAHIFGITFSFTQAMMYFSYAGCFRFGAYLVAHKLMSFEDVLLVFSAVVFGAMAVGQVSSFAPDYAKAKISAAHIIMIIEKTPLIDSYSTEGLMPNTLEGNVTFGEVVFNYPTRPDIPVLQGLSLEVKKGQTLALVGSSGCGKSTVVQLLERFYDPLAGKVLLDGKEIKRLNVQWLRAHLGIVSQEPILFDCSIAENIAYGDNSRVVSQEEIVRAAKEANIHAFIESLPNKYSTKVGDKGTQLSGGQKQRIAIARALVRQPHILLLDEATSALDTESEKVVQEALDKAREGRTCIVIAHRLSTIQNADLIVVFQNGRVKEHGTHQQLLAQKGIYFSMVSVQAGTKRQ

IC50 (ABCB1 [1]): > 50 µM | IC50 (ABCC1 [2]): 5.62 µM | IC50 (A431-ABCG2): 91.8 µM | IC50 (A431-ABCC1): 91.5 µM
Structure (SMILES): Cn1ncnc1[C@H]1c2n[nH]c(=O)c3cc(F)cc(c23)N[C@@H]1c1ccc(F)cc1 [talazoparib, Talazoparib]
IC50 (A431-parent): 86.8 µM | ABCB1 substrate status (ABCB1 [3]): substrate of ABCB1 | effect on ABCC1 mRNA (ABCC1 [4]): upregulate | effect on ABCC1 protein level (ABCC1 [4]): unchanged
